Structures can show the parent of a compound that is named as a salt.
Columns and labels:
[1] = Shake flask solubility of potential salts in aqueous medium (pH<2); assay type: physicochemical; settings: pH<2, ca. 24 hours shaking, HPLC
Experimental: The solubility of the potential salts was tested using a shake flask method whereby a slurry of each salt was prepared in deionized water and the pH of the reaction was reduced to below pH 2 by adding a small amount of the counterion used for salt formation. The pH was tested using universal indicator paper.
(§1) (open vials). TGA was carried out after the stability studies for samples containing sufficient material.

[2] = 1 week stability of primary screen salts at 40° C./75% RH and 80° C. (open vials, XRPD); assay type: physicochemical
Experimental: as §1

[3] = Dog PK Study 1 (cross-over, fasted); assay type: in vivo, beagle dogs; settings: male, beagle, po; for AUC(0-t): read-out: AUC0-24; for Tmax: median
Experimental: Compound 1 free base and compound 2, as the Form I monohydrobromide (HBr) salt, were evaluated in a cross-over dog PK study. Compound 1 free base capsule consisted of compound 1 free base in Vitamin E TPGS and PEG 400 filled into a capsule. The Form I hydrobromide salt capsule consisted of Form I HBr alone filled into a capsule.
Compound 1 free base capsule and Form I HBr capsule were dosed orally at 28.5 and 24.5 mg/kg (as active) QD, respectively, to three fasted male non-naïve beagle dogs (body weight range: 10.1-10.8 kg) with a 5-day washout period. Approximately 5 mL of tap water was orally administered to encourage swallowing and ensure delivery of capsules into the stomach. Plasma samples were collected at pre-dose and 0.5, 1, 2, 4, 6, 8, 12 and 24 hours post dose. The plasma concentrations of compound 1 were determined by a liquid chromatography-tandem mass spectrometry (LC/MS/MS) method.

[4] = Dog PK Study 2 (gastric pH adjustment, food effect); assay type: in vivo, beagle dogs; settings: 30 mg/kg, plasma compound 1, dogs (n = 3), capsule orally 30 mg/kg, mean (% CV); for AUC(0-t): read-out: AUC0-24
Experimental: Compound 1 free base and compound 2, as the Form I monohydrobromide (HBr) salt, were evaluated in a cross-over dog PK study in which male dogs were pre-treated with either pentagastrin (to decrease gastric pH) or famotidine (to increase gastric pH) prior to oral dosing to control gastric pH. In addition, the effect of food on the systemic exposure to compound 1 was also evaluated in dogs receiving Form I HBr with pentagastrin pre-treatment. Compound 1 free base capsule consisted of compound 1 free base in Vitamin E TPGS and PEG 400 filled into a capsule. The Form I hydrobromide salt capsule consisted of Form I HBr alone filled into a capsule.
There was a minimum 6-day washout between dosing. On the day of dosing under fed condition, dogs were given 60 gram of a high fat diet (Harlan Teklad 2027C) and allowed to consume all of the food within 15-20 minutes. The animals were given a 10-minute rest period and then the capsule doses were administered. Plasma samples were collected at pre-dose and 0.5, 1, 2, 4, 6, 8, 12 and 24 hours post dose.

[5] = Thermodynamic solubility in media of various pH (HPLC; XRPD of excess solids); settings: for Thermodynamic Solubility: ca. 24 hours
Experimental: The remaining solids were also analysed by XRPD analysis to establish if any changes in the solid form occurred.
The remaining solids were also analysed by XRPD analysis to establish if any changes in the solid form occurred. For the buffer solutions, KCl/HCl was used for pH 1 and citrate/phosphate combinations for pH 3, 4.5 and 6.6.
The remaining solids were also analysed by XRPD analysis to establish if any changes in the solid form occurred. For the buffer solutions, KCl/HCl was used for pH 1 and citric acid/sodium citrate combinations for pH 3, 4.5 and 6.2.
The solids were then removed by filtration and tested by XRPD analysis. The mother liquors were analyzed by HPLC to determine API solubility.
For the buffer solutions, KCl/HCl was used for pH 1 and citrate/phosphate combinations for pH 3, 4.5 and 6.6 (10 mM). The pH of the solutions was also measured prior to HPLC analysis.

[6] = Dynamic vapour sorption (DVS); assay type: physicochemical
Experimental: For dynamic vapour sorption (DVS), approximately 10-20 mg of sample was placed into a wire mesh vapour sorption balance pan and loaded into a DVS-1 dynamic vapour sorption balance by Surface Measurement Systems. The sample was subjected to a ramping profile from 20-90% relative humidity (RH) at 10% increments, maintaining the sample at each step until a stable weight had been achieved (99.5% step completion). After completion of the sorption cycle, the sample was dried using the same procedure, but all the way down to 0% RH and finally taken back to the starting point of 20% RH. The weight change during the sorption/desorption cycles were plotted, allowing for the hygroscopic nature of the sample to be determined.

[7] = 1 week stability study (XRPD and HPLC); assay type: physicochemical
Experimental: (§2) Resulting solids were analysed by XRPD and HPLC to establish if any changes had occurred.
as §2
The resulting solids were analysed by XRPD and HPLC to establish if any changes had occurred.

[8] = Solvent solubility screen of amorphous hydrobromide salt; assay type: physicochemical
Experimental: Approximately 10 mg of amorphous hydrobromide salt was placed in each of 24 vials and 5 volume aliquots of the appropriate solvent system was added to the vial. Between each addition, the mixture was checked for dissolution. This procedure was continued until dissolution was observed or until 100 volumes of solvent had been added.

[9] = plasma compound 1, fasted dogs, capsule orally 28.5 mg/kg, mean, dog #3 excluded
[10] = dog, plasma compound 1, fasted dogs (n = 3), capsule orally 24.5 mg/kg, mean (% CV)
[11] = 25° C., closed container, 7 day
[12] = 80° C., closed container, 7 day

SMILES: C=CC(=O)Nc1cccc(Nc2nc(Nc3ccc(N4CCN(C(C)=O)CC4)cc3OC)ncc2C(F)(F)F)c1.O=C(O)c1c(O)cc(O)cc1O [2,4,6-Trihydroxybenzoate Form II]
- Approximate Solubility [1]: Below LOQ

SMILES: C=CC(=O)Nc1cccc(Nc2nc(Nc3ccc(N4CCN(C(C)=O)CC4)cc3OC)ncc2C(F)(F)F)c1.O=C(O)c1c(O)cc(O)cc1O [2,4,6-Trihydroxybenzoate Form I]
- Approximate Solubility [1]: Below LOQ
- Stability 40° C./75% RH (open conditions) [2]: No form change,
- Stability 80° C. (open conditions) [2]: No form change,

SMILES: C=CC(=O)Nc1cccc(Nc2nc(Nc3ccc(N4CCN(C(C)=O)CC4)cc3OC)ncc2C(F)(F)F)c1 [Compound 1 (Free Base)]
- Cmax [3, 9]: 0.12 µg/mL
- half-life [3, 9]: 2.1 h
- AUC(0-t) [3, 9]: 0.278 µg·h/mL
- Tmax ([3]; plasma compound 1, fasted dogs, capsule orally 28.5 mg/kg, dog #3 excluded): 1 h
- AUC(0-t) ([4]; male, beagle, dog, plasma, po, Pentagastrin, fasted): 7.81 µg·h/mL
- Cmax ([4]; male, beagle, dog, plasma, po, Pentagastrin, fasted, read-out: Cmax): 1.82 µg/mL
- AUC0-24 ([4]; Famotidine, fasted): 163 (3%) ng · h/mL
- Cmax ([4]; Famotidine, fasted): 57 (24%) ng/mL

SMILES: C=CC(=O)Nc1cccc(Nc2nc(Nc3ccc(N4CCN(C(C)=O)CC4)cc3OC)ncc2C(F)(F)F)c1 [Compound 2 (Form I Hydrobromide)]
- half-life ([3]; dog, plasma compound 1, fasted dogs (n = 3), capsule orally 24.5 mg/kg, mean): 2.4 h
- Cmax [3, 10]: 1.42 µg/mL
- AUC(0-t) [3, 10]: 5.26 µg·h/mL
- Tmax ([3]; dog, plasma compound 1, fasted dogs (n = 3), capsule orally 24.5 mg/kg): 2 h
- AUC(0-t) ([4]; male, beagle, dog, plasma, po, Pentagastrin, fed): 13.9 µg·h/mL
- Cmax ([4]; male, beagle, dog, plasma, po, Pentagastrin, fed, read-out: Cmax): 3.97 µg/mL
- AUC0-24 ([4]; Famotidine, fasted): 4010 (54%) ng · h/mL
- Cmax ([4]; Famotidine, fasted): 1180 (20%) ng/mL
- AUC0-24 ([4]; Pentagastrin, fasted): 9450 (31%) ng · h/mL
- Cmax ([4]; Pentagastrin, fasted): 2860 (39%) ng/mL

SMILES: Br.C=CC(=O)Nc1cccc(Nc2nc(Nc3ccc(N4CCN(C(C)=O)CC4)cc3OC)ncc2C(F)(F)F)c1 [Form III hydrobromide salt]
- pH prior to analysis ([5]; Buffer pH 1): 0.95
- pH prior to analysis ([5]; Buffer pH 3): 1.53
- pH prior to analysis ([5]; Buffer pH 4.5): 1.79
- pH prior to analysis ([5]; Buffer pH 6.6): 1.79
- XRPD of excess solids ([5]; pH 1.0, KCl/HCl): remained predominantly consistent with the Form III hydrobromide
- Thermodynamic Solubility ([5]; pH 1.0, KCl/HCl buffer, listed as Form III): 13.88 mg/mL
- XRPD of excess solids ([5]; pH 3.0, Citrate/Phosphate): became amorphous
- XRPD of excess solids ([5]; pH 4.5, Citrate/Phosphate): converted to a freebase hydrate form
- Thermodynamic Solubility ([5]; pH 4.5, Citrate/Phosphate): 0.28 mg/mL
- XRPD of excess solids ([5]; pH 6.6, Citrate/Phosphate): converted to a freebase hydrate form
- hygroscopicity (DVS) [6]: slightly hygroscopic
- Moisture uptake, Cycle 3 Sorption ([6]; 0-20% RH): ca. 0.535%
- mass uptake, Cycle 1 Sorption ([6]; 20-90% RH): ca. 1.045%
- mass decrease, Cycle 2 Desorption ([6]; 90-0% RH): ca. 1.983%
- post DVS XRPD analysis (polymorphic form) ([6]; after DVS cycles, listed as Form III): converted to Form I hydrobromide salt
- HPLC purity after storage [7, 11]: 98.9%
- XRPD after storage [7, 11]: Form I
- HPLC purity after storage ([7]; 25° C., open container, 7 day): 98.2%
- XRPD after storage ([7]; 25° C., open container, 7 day): Form I
- HPLC purity after storage ([7]; 40° C./75% RH, closed (crimped) vial, 1 week): 99.0%
- XRPD after storage ([7]; 40° C./75% RH, closed (crimped) vial, 1 week, listed as Form III): Form I
- HPLC purity after storage ([7]; 40° C./75% RH, open vial, 1 week): 98.3%
- XRPD after storage ([7]; 40° C./75% RH, open vial, 1 week, listed as Form III): Form I
- HPLC purity after storage [7, 12]: 99.0%
- XRPD after storage [7, 12]: Form I
- HPLC purity after storage ([7]; 80° C., open vial, 1 week, listed as Form III): 98.7%

SMILES: Br.C=CC(=O)Nc1cccc(Nc2nc(Nc3ccc(N4CCN(C(C)=O)CC4)cc3OC)ncc2C(F)(F)F)c1 [amorphous hydrobromide salt]
- Approximate Solubility ([8]; 1,4-Dioxane): <10 mg/mL
- Approximate Solubility ([8]; 1-Butanol): <10 mg/mL
- Approximate Solubility ([8]; 2-Propanol): <10 mg/mL
- Approximate Solubility ([8]; 3-Methyl-1-butanol): <10 mg/mL
- Approximate Solubility ([8]; Acetone): <10 mg/mL
- Approximate Solubility ([8]; Acetone:Water (10%)): <10 mg/mL
- Approximate Solubility ([8]; Acetonitrile): <10 mg/mL
- Approximate Solubility ([8]; Cyclohexane): <10 mg/mL
- Approximate Solubility ([8]; Dichloromethane): <10 mg/mL
- Approximate Solubility ([8]; Diisopropyl ether): <10 mg/mL
- Approximate Solubility ([8]; Dimethylformamide): ca. 67 mg/mL
- Approximate Solubility ([8]; Dimethylsulfoxide): ca. 50 mg/mL
- Approximate Solubility ([8]; Ethanol): <10 mg/mL
- Approximate Solubility ([8]; Ethyl acetate): <10 mg/mL
- Approximate Solubility ([8]; Heptane): <10 mg/mL
- Approximate Solubility ([8]; Isopropyl acetate): <10 mg/mL
- Approximate Solubility ([8]; Methyl isobutyl ketone): <10 mg/mL
- Approximate Solubility ([8]; Methylethyl ketone): <10 mg/mL
- Approximate Solubility ([8]; N-Methyl-2-pyrrolidone): ca. 20 mg/mL
- Approximate Solubility ([8]; Nitromethane): <10 mg/mL
- Approximate Solubility ([8]; Tetrahydrofuran): <10 mg/mL
- Approximate Solubility ([8]; Toluene): <10 mg/mL
- Approximate Solubility ([8]; Water): <10 mg/mL
- Approximate Solubility ([8]; tert-Butylmethyl ether): <10 mg/mL
